Target: T1, human apelin receptor (Homo sapiens, UniProt P35414)
T1 construct: expressed in transfected cells
T1 sequence (P35414 1-380): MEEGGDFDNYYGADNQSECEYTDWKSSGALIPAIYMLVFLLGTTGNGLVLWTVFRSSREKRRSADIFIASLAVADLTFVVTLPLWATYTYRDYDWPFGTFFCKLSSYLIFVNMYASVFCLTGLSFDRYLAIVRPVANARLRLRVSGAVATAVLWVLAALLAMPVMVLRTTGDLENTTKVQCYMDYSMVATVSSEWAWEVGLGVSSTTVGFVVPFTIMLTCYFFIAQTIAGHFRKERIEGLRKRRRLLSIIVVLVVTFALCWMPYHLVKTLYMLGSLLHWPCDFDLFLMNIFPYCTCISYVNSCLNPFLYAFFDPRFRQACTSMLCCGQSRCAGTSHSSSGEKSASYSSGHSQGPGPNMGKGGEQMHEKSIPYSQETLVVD
Assay: Determination of agonism on the human apelin receptor by a calcium fluorescence assay (FLIPR)
Type: cell-based
Conditions: HEK293 cells stably transfected with human apelin receptor and Giaq protein, Fluo-4 calcium fluorescence, read-out: EC50 (APJ agonism)
How it was run: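 HEK293 cells stably co-expressing human apelin receptor and promiscuous Giaq, loaded 1 h at 37 °C with Fluo-4 (4 μM) in probenecid-containing Hepes buffer, pH 7.4. Compounds, at least 7 concentrations in triplicate, added in FLIPR Tetra; peak calcium fluorescence normalized to 1 μM apelin-13 as 100% to derive EC50.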

| SMILES | EC50 |
| --- | --- |
| CCC(CC)n1c(Cc2cccs2)nc2cc(C(=O)N[C@@H](CCC(C)C)C(=O)O)ccc21 [Example 130, (S)-2-{[1-(1-Ethyl-propyl)-2-thiophen-2-ylmethyl-1H-benzoimidazole-5-carbonyl]-amino}-5-methyl-hexanoic acid] | 0.293 µM |
| CC(C)C[C@H](NC(=O)c1ccc2c(c1)nc(Cc1ccoc1)n2C1CCCCC1C)C(=O)O (stereo partly drawn) [Example 131, (S)-2-{[2-Furan-3-ylmethyl-1-(2-methyl-cyclohexyl)-1H-benzoimidazole-5-carbonyl]-amino}-4-methyl-pentanoic acid] | 0.185 µM |
| CC(C)C[C@H](NC(=O)c1ccc2c(c1)nc(Cc1cccs1)n2-c1ccccc1)C(=O)O [Example 132, (S)-4-Methyl-2-[(1-phenyl-2-thiophen-2-ylmethyl-1H-benzoimidazole-5-carbonyl)-amino]-pentanoic acid] | 0.7 µM |
| CCC(C)Cn1c(CC2CCCCC2)nc2cc(C(=O)N[C@@H](CC3CCCCC3)C(=O)O)ccc21 (stereo partly drawn) [Example 133, (S)-3-Cyclohexyl-2-{[2-cyclohexylmethyl-1-(2-methyl-butyl)-1H-benzoimidazole-5-carbonyl]-amino}-propionic acid] | 2.35 µM |
| CC(C)Cn1c(CC2CCCCC2)nc2cc(C(=O)N[C@@H](CC3CCCCC3)C(=O)O)ccc21 [Example 134, (S)-3-Cyclohexyl-2-[(2-cyclohexylmethyl-1-isobutyl-1H-benzoimidazole-5-carbonyl)-amino]-propionic acid] | 7.15 µM |
| CCC(C)Cn1c(CC2CCCCC2)nc2cc(C(=O)N[C@@H](CC(C)C)C(=O)O)ccc21 (stereo partly drawn) [Example 135, (S)-2-{[2-Cyclohexylmethyl-1-(2-methyl-butyl)-1H-benzoimidazole-5-carbonyl]-amino}-4-methyl-pentanoic acid] | 3.8 µM |
| CC(C)C[C@H](NC(=O)c1ccc2c(c1)nc(Cc1ccsc1)n2-c1ccccc1)C(=O)O [Example 136, (S)-4-Methyl-2-[(1-phenyl-2-thiophen-3-ylmethyl-1H-benzoimidazole-5-carbonyl)-amino]-pentanoic acid] | 2.7 µM |
| CCC(C)Cn1c(Cc2ccsc2)nc2cc(C(=O)N[C@@H](CC(C)C)C(=O)O)ccc21 (stereo partly drawn) [Example 137, (S)-4-Methyl-2-{[1-(2-methyl-butyl)-2-thiophen-3-ylmethyl-1H-benzoimidazole-5-carbonyl]-amino}-pentanoic acid] | 9.5 µM |
| CC(C)C[C@H](NC(=O)c1ccc2c(c1)nc(Cc1ccoc1)n2C1CCCCC1)C(=O)O [Example 138, (S)-2-[(1-Cyclohexyl-2-furan-3-ylmethyl-1H-benzoimidazole-5-carbonyl)-amino]-4-methyl-pentanoic acid] | 2.93 µM |
| CC(C)C[C@H](NC(=O)c1ccc2c(c1)nc(Cc1ccsc1)n2C1CCCCC1C)C(=O)O (stereo partly drawn) [Example 139, (S)-4-Methyl-2-{[1-(2-methyl-cyclohexyl)-2-thiophen-3-ylmethyl-1H-benzoimidazole-5-carbonyl]-amino}-pentanoic acid] | 0.285 µM |
| CCC(C)n1c(Cc2cccs2)nc2cc(C(=O)N[C@@H](CC3CCCCC3)C(=O)O)ccc21 (stereo partly drawn) [Example 140, (S)-2-[(1-sec-Butyl-2-thiophen-2-ylmethyl-1H-benzoimidazole-5-carbonyl)-amino]-3-cyclohexyl-propionic acid] | 3.8 µM |

Next, values leading:

| EC50 | SMILES |
| --- | --- |
| 23 µM | CCC(CC)n1c(CC2CCCCC2)nc2cc(C(=O)N[C@@H](CC3CCCCC3)C(=O)O)ccc21 [Example 141, (S)-3-Cyclohexyl-2-{[2-cyclohexylmethyl-1-(1-ethyl-propyl)-1H-benzoimidazole-5-carbonyl]-amino}-propionic acid] |
| 12 µM | CCC(C)n1c(Cc2ccsc2)nc2cc(C(=O)N[C@@H](CC(C)C)C(=O)O)ccc21 (stereo partly drawn) [Example 142, (S)-2-[(1-sec-Butyl-2-thiophen-3-ylmethyl-1H-benzoimidazole-5-carbonyl)-amino]-4-methyl-pentanoic acid] |
| 2.45 µM | CC(C)C[C@H](NC(=O)c1ccc2c(c1)nc(Cc1ccccc1)n2C1CCCCC1C)C(=O)O (stereo partly drawn) [Example 143, (S)-2-{[2-Benzyl-1-(2-methyl-cyclohexyl)-1H-benzoimidazole-5-carbonyl]-amino}-4-methyl-pentanoic acid] |
| 23 µM | Cc1ccc(Cc2nc3cc(C(=O)N[C@@H](CC(C)C)C(=O)O)ccc3n2C2CCCCC2C)s1 (stereo partly drawn) [Example 144, (S)-4-Methyl-2-{[1-(2-methyl-cyclohexyl)-2-(5-methyl-thiophen-2-ylmethyl)-1H-benzoimidazole-5-carbonyl]-amino}-pentanoic acid] |
| 18 µM | CCC(C)Cn1c(Cc2cccs2)nc2cc(C(=O)N[C@@H](CC3CCCCC3)C(=O)O)ccc21 (stereo partly drawn) [Example 145, (S)-3-Cyclohexyl-2-{[1-(2-methyl-butyl)-2-thiophen-2-ylmethyl-1H-benzoimidazole-5-carbonyl]-amino}-propionic acid] |
| 0.328 µM | CC(C)C[C@H](NC(=O)c1ccc2c(c1)nc(Cc1cccs1)n2C1CCCCC1C)C(=O)O (stereo partly drawn) [Example 146, (S)-4-Methyl-2-{[1-(2-methyl-cyclohexyl)-2-thiophen-2-ylmethyl-1H-benzoimidazole-5-carbonyl]-amino}-pentanoic acid] |
| 4.55 µM | CCC(C)n1c(Cc2cccs2)nc2cc(C(=O)N[C@@H](CC(C)C)C(=O)O)ccc21 (stereo partly drawn) [Example 147, (S)-2-[(1-sec-Butyl-2-thiophen-2-ylmethyl-1H-benzoimidazole-5-carbonyl)-amino]-4-methyl-pentanoic acid] |
| 15 µM | CC(C)C[C@H](NC(=O)c1ccc2c(c1)nc(Cc1ccccc1)n2C1CCCCC1)C(=O)O [Example 148, (S)-2-[(2-Benzyl-1-cyclohexyl-1H-benzoimidazole-5-carbonyl)-amino]-4-methyl-pentanoic acid] |
| 27 µM | CCC(C)n1c(CC2CCCC2)nc2cc(C(=O)N[C@@H](CC(C)C)C(=O)O)ccc21 (stereo partly drawn) [Example 149, (S)-2-[(1-sec-Butyl-2-cyclopentylmethyl-1H-benzoimidazole-5-carbonyl)-amino]-4-methyl-pentanoic acid] |
| 2.8 µM | CC(C)C[C@H](NC(=O)c1ccc2c(c1)nc(CC1CCCC1)n2C1CCCCC1C)C(=O)O (stereo partly drawn) [Example 150, (S)-2-{[2-Cyclopentylmethyl-1-(2-methyl-cyclohexyl)-1H-benzoimidazole-5-carbonyl]-amino}-4-methyl-pentanoic acid] |
| 0.89 µM | CCC(CC)n1c(CC2CCCO2)nc2cc(C(=O)N[C@@H](CC3CCCCC3)C(=O)O)ccc21 (stereo partly drawn) [Example 151, (S)-3-Cyclohexyl-2-{[1-(1-ethyl-propyl)-2-(tetrahydro-furan-2-ylmethyl)-1H-benzoimidazole-5-carbonyl]-amino}-propionic acid] |
| 3.95 µM | CC(C)C[C@H](NC(=O)c1ccc2c(c1)nc(Cc1ccsc1)n2C1CCCCC1)C(=O)O [Example 152, (S)-2-[(1-Cyclohexyl-2-thiophen-3-ylmethyl-1H-benzoimidazole-5-carbonyl)-amino]-4-methyl-pentanoic acid] |
| 0.35 µM | CCC(CC)n1c(Cc2cccs2)nc2cc(C(=O)N[C@H](C(=O)O)[C@H](C)CC)ccc21 [Example 153, (2S,3R)-2-{[1-(1-Ethyl-propyl)-2-thiophen-2-ylmethyl-1H-benzoimidazole-5-carbonyl]-amino}-3-methyl-pentanoic acid] |
